The source of these data is patent US20260184693A1, “INHIBITORS OF SOLUTE CARRIER FAMILY 6A MEMBER 19 (SLC6A19) AND METHODS OF USE THEREOF” (Maze Therapeutics, Inc., priority 2022, published 2026).

The target of the assay is T1, human SLC6A19 (Homo sapiens, UniProt Q695T7).
T1 construct: expressed in transfected cells
T1 sequence (Q695T7 1-634): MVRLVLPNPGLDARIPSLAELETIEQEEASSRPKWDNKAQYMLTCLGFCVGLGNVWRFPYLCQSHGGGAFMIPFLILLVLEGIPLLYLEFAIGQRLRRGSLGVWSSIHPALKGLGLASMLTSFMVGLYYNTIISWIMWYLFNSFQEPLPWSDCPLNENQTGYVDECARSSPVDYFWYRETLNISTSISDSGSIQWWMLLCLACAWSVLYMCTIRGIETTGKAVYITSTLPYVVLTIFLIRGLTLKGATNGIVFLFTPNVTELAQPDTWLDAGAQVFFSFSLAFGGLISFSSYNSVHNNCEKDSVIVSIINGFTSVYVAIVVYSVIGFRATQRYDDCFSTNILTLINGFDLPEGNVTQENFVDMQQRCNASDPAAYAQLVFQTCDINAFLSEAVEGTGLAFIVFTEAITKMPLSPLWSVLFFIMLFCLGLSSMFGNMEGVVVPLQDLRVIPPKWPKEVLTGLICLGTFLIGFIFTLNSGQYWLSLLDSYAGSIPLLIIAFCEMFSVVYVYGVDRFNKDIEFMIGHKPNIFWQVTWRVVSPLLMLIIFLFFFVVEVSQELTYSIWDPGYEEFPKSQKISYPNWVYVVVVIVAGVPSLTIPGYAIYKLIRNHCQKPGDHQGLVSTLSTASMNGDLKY
T1 sequence (Q9HBJ8 15-222 partner): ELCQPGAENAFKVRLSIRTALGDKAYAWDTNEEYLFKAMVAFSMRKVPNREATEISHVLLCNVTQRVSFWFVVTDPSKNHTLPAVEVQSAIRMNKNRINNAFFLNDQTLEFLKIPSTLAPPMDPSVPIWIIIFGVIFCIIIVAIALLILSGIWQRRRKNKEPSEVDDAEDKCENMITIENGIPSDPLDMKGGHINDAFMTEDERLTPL
The assay can be described thus: Example B2: 13C6,15N-isoleucine uptake, RapidFire mass spectrometry, in CHO cells with doxycycline-inducible expression of human SLC6A19 and TMEM27. The conditions noted are these: read-out: SLC6A19_RapidFire Uptake Assay IC50. It is filed as cell-based. In outline: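 CHO cells were induced with doxycycline to express human SLC6A19 with TMEM27, then pre-incubated 20 min at 37 °C with compounds (2-fold, 10-point, duplicate). Uptake of 13C6,15N-isoleucine (2 mM solution added) over a further 20 min was measured by RapidFire mass spectrometry, using 13C-leucine as internal standard.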

pIC50: −log10 of the molar value.

Consider `CC(=O)N1CCC[C@@H](N(C)C(=O)NCc2cc3ccc(OCc4cc(C)on4)cc3[nH]2)C1` [Compound 143, (R)-1-(1-acetylpiperidin-3-yl)-1-methyl-3-((6-((5-methylisoxazol-3-yl)methoxy)-1H-indol-2-yl)methyl)urea], for which the pIC50 (in general, the negative decadic logarithm of the IC50, by convention in mol/L) was 5.96.

With `Cc1cc(COc2cc3[nH]c(CNC(=O)N(C)[C@@H]4CCCN(c5cccnn5)C4)cc3cc2Cl)no1` [Compound 144, (R)-3-((5-chloro-6-((5-methylisoxazol-3-yl)methoxy)-1H-indol-2-yl)methyl)-1-methyl-1-(1-(pyridazin-3-yl)piperidin-3-yl)urea], the pIC50 is 6.55.

`CN(C(=O)NCc1cc2ccccc2[nH]1)C1CCCN(c2cccnn2)C1` (stereo not drawn) [Compound 145, 3-((1H-indol-2-yl)methyl)-1-methyl-1-(1-(pyridazin-3-yl)piperidin-3-yl)urea]: the pIC50 was 6.04. To `CN(C(=O)NCc1cc2ccccc2[nH]1)[C@@H]1CCCN(c2cccnn2)C1` [Compound 146, (R)-3-((1H-indol-2-yl)methyl)-1-methyl-1-(1-(pyridazin-3-yl)piperidin-3-yl)urea] belongs 6.26; to `CC(=O)N1CCC[C@@H](N(C)C(=O)NCc2cc3ccccc3[nH]2)C1` [Compound 148, (R)-3-((1H-indol-2-yl)methyl)-1-(1-acetylpiperidin-3-yl)-1-methylurea], 5.97; to `CN1CCC[C@@H](N(C)C(=O)NCc2cc3cc(Cl)ccc3[nH]2)C1` [Compound 149, (R)-3-((5-chloro-1H-indol-2-yl)methyl)-1-methyl-1-(1-methylpiperidin-3-yl)urea], 5.00. As to `CN(C(=O)NCc1cc2ccccc2[nH]1)[C@@H]1CCCN(c2ccon2)C1` [Compound 150, (R)-3-((1H-indol-2-yl)methyl)-1-(1-(isoxazol-3-yl)piperidin-3-yl)-1-methylurea], the pIC50 is 7.04.

For `CN(C(=O)NCc1cc2cc(Cl)ccc2[nH]1)[C@@H]1CCCN(c2ccon2)C1` [Compound 151, (R)-3-((5-chloro-1H-indol-2-yl)methyl)-1-(1-(isoxazol-3-yl)piperidin-3-yl)-1-methylurea], the pIC50 was 7.39. Consider `CCc1cc2[nH]c(CNC(=O)N(C)[C@@H]3CCCN(C(C)=O)C3)cc2cc1Cl` [Compound 152, (R)-1-(1-acetylpiperidin-3-yl)-3-((5-chloro-6-ethyl-1H-indol-2-yl)methyl)-1-methylurea], for which the pIC50 was 6.77. With `COc1cc2[nH]c(CNC(=O)N(C)[C@@H]3CCCN(C(C)=O)C3)cc2cc1Cl` [Compound 153, (R)-1-(1-acetylpiperidin-3-yl)-3-((5-chloro-6-methoxy-1H-indol-2-yl)methyl)-1-methylurea], the pIC50 is 6.30.

In the case of `CC(=O)N1CCC[C@@H](N(C)C(=O)NCc2cc3cc(Cl)c(Cl)cc3[nH]2)C1` [Compound 154, (R)-1-(1-acetylpiperidin-3-yl)-3-((5,6-dichloro-1H-indol-2-yl)methyl)-1-methylurea], the pIC50 is 6.76.

For `CCOc1cc2[nH]c(CNC(=O)N(C)[C@@H]3CCCN(C(C)=O)C3)cc2cc1Cl` [Compound 155, (R)-1-(1-acetylpiperidin-3-yl)-3-((5-chloro-6-ethoxy-1H-indol-2-yl)methyl)-1-methylurea], the pIC50 is 6.27. Take `CC(=O)N1CCC[C@@H](N(C)C(=O)NCc2cc3cc(F)c(F)cc3[nH]2)C1` [Compound 156, (R)-1-(1-acetylpiperidin-3-yl)-3-((5,6-difluoro-1H-indol-2-yl)methyl)-1-methylurea]: the pIC50 is 6.55. `CC(=O)N1CCC[C@@H](N(C)C(=O)NCc2cc3cc(C)c(Cl)cc3[nH]2)C1` [Compound 157, (R)-1-(1-acetylpiperidin-3-yl)-3-((6-chloro-5-methyl-1H-indol-2-yl)methyl)-1-methylurea]: the pIC50 is 6.71. As for `COC(=O)N1CCC[C@@H](N(C)C(=O)NCc2cc3cc(Cl)ccc3[nH]2)C1` [Compound 158, methyl (R)-3-(3-((5-chloro-1H-indol-2-yl)methyl)-1-methylureido)piperidine-1-carboxylate], the pIC50 is 6.95. Regarding `CC(=O)N1CCC[C@@H](N(C)C(=O)NCc2cc3cc(Cl)c(F)cc3[nH]2)C1` [Compound 159, (R)-1-(1-acetylpiperidin-3-yl)-3-((5-chloro-6-fluoro-1H-indol-2-yl)methyl)-1-methylurea], the pIC50 was 6.75.

With `CC(=O)N1CCC[C@@H](N(C)C(=O)NCc2cc3ccc(F)cc3[nH]2)C1` [Compound 160, (R)-1-(1-acetylpiperidin-3-yl)-3-((6-fluoro-1H-indol-2-yl)methyl)-1-methylurea], the pIC50 is 6.15. In the case of `CC(=O)N1CCC[C@@H](N(C)C(=O)NCc2cc3cc(F)ccc3[nH]2)C1` [Compound 161, (R)-1-(1-acetylpiperidin-3-yl)-3-((5-fluoro-1H-indol-2-yl)methyl)-1-methylurea], the pIC50 was 6.31. To `COc1ccc2cc(CNC(=O)N(C)[C@@H]3CCCN(C(C)=O)C3)[nH]c2c1` [Compound 162, (R)-1-(1-acetylpiperidin-3-yl)-3-((6-methoxy-1H-indol-2-yl)methyl)-1-methylurea] belongs 5.17; to `CC(=O)N1CCC[C@@H](N(C)C(=O)NCc2cc3cc(F)c(Cl)cc3[nH]2)C1` [Compound 164, (R)-1-(1-acetylpiperidin-3-yl)-3-((6-chloro-5-fluoro-1H-indol-2-yl)methyl)-1-methylurea], 6.45. As for `CC(=O)N1CCC[C@@H](N(C)C(=O)NCc2cc3[nH]ccc3cc2Cl)C1` [Compound 165, (R)-1-(1-acetylpiperidin-3-yl)-3-((5-chloro-1H-indol-6-yl)methyl)-1-methylurea], the negative-log IC50 (pIC50) is 5.10.

For `CCN(C(=O)NCc1cc2cc(F)ccc2[nH]1)[C@@H]1CCCN(C(C)=O)C1` [Compound 166, (R)-1-(1-acetylpiperidin-3-yl)-1-ethyl-3-((5-fluoro-1H-indol-2-yl)methyl)urea], the pIC50 is 6.77. The value for `CCN(C(=O)NCc1cc2cc(Cl)c(OC)cc2[nH]1)[C@@H]1CCCN(C(C)=O)C1` [Compound 167, (R)-1-(1-acetylpiperidin-3-yl)-3-((5-chloro-6-methoxy-1H-indol-2-yl)methyl)-1-ethylurea] was 6.99; that for `CC(=O)N1CCC[C@@H](N(C)C(=O)NCc2cc3[nH]cc(C)c3cc2F)C1` [Compound 168, (R)-1-(1-acetylpiperidin-3-yl)-3-((5-fluoro-3-methyl-1H-indol-6-yl)methyl)-1-methylurea] was 6.19; that for `CCN(C(=O)NCc1cc2cc(F)c(F)cc2[nH]1)[C@@H]1CCCN(C(C)=O)C1` [Compound 169, (R)-1-(1-acetylpiperidin-3-yl)-3-((5,6-difluoro-1H-indol-2-yl)methyl)-1-ethylurea] was 7.01. The value for `CCN(C(=O)NCc1cc2cc(Cl)c(F)cc2[nH]1)[C@@H]1CCCN(C(C)=O)C1` [Compound 170, (R)-1-(1-acetylpiperidin-3-yl)-3-((5-chloro-6-fluoro-1H-indol-2-yl)methyl)-1-ethylurea] was 7.35; that for `CC(=O)N1CCC[C@@H](N(C)C(=O)NCc2cc3ccc(C#N)cc3[nH]2)C1` [Compound 172, (R)-1-(1-acetylpiperidin-3-yl)-3-((6-cyano-1H-indol-2-yl)methyl)-1-methylurea] was 4.96.
